From patent publication US4209426A, “Polypeptides related to somatostatin” (American Home Products Corporation, priority 1979, dated 1980)
Counter-ions that a name gives are not always drawn. Bridge positions count the residues as written; N and C are the ends. Square brackets hold non-standard residues; d marks the D form. Peptide text beside a SMILES is read from it.

Tests used:
Type in all cases: in vivo
insulin = assay: Arginine-stimulated insulin secretion in Nembutal-anesthetized rats, radioimmunoassay of blood; details: albino male rats
Protocol: (§1) The biological activity of the products of the preceding preparatory examples were determined by the following procedure:
(§2) Albino male rats were administered Nembutal intraperitoneally at a dose of 50 milligrams per kilogram. Fifteen minutes later a subcutaneous injection of the test compound of physiological saline was administered. Ten minutes later 0.5 milliliters of arginine (300 milligrams per milliliter, pH 7.2) is injected into the heart. Five minutes after receipt of the arginine the rats are decapitated and blood is collected into trasylol-EDTA. An appropriate aliquot was assayed for growth hormone (GH), insulin and glucagon by radio immunoassay.

glucagon = assay: Arginine-stimulated glucagon secretion in Nembutal-anesthetized rats, radioimmunoassay of blood; details: for GLUN: albino male rats; for dose with selectivity of action toward glucagon: rats, subcutaneous, summary statement
Protocol: as §1, §2

growth hormone (GH) = assay: Arginine-stimulated growth hormone secretion in Nembutal-anesthetized rats, radioimmunoassay of blood; details: for GH: albino male rats; for dose effective for reducing secretion of growth hormone, glucagon, and insulin levels: rats, subcutaneous, summary statement covering GH
Protocol: as §1, §2

[1] = 200 μg/kg subcutaneous, blood 15 min after compound, control 323 ± 28 (Example 2), 271 ± 44 (Example 3)
[2] = 200 μg/kg subcutaneous, blood 15 min after compound, control 379 ± 109 (Example 2), 46 ± 72 (Example 3)
[3] = 200 μg/kg subcutaneous, blood 15 min after compound (5 min after arginine), control 268 ± 46 (Example 2), 407 ± 62 (Example 3)

Row | SMILES | INS (insulin; [1]) [μU/ml.] | GLUN (glucagon; [2]) [pg/mL] | dose with selectivity of action toward glucagon (glucagon) [micrograms per kilogram] | GH (growth hormone (GH); [3]) [ng/mL] | dose effective for reducing secretion of growth hormone, glucagon, and insulin levels (growth hormone (GH)) [micrograms per kilogram] | INS (insulin; 10 μg/kg subcutaneous, control 309 ± 31) [μU/ml.] | INS (insulin; 50 μg/kg subcutaneous, control 238 ± 23) [μU/ml.] | GLUN (glucagon; 10 μg/kg subcutaneous, control 52 ± 10) [pg/mL] | GLUN (glucagon; 50 μg/kg subcutaneous, control 86 ± 6) [pg/mL] | GH (growth hormone (GH); 10 μg/kg subcutaneous, control 335 ± 33) [ng/mL] | GH (growth hormone (GH); 50 μg/kg subcutaneous, control 202 ± 11) [ng/mL]
1 | C[C@@H](O)[C@@H]1NC(=O)[C@H](Cc2ccccc2)NC(=O)[C@H]([C@@H](C)O)NC(=O)[C@H](CCCCN)NC(=O)[C@@H](Cc2c[nH]c3ccccc23)NC(=O)[C@H](Cc2ccccc2)NC(=O)[C@H](Cc2ccccc2)NC(=O)[C@H](Cc2ccc(O)cc2)NC(=O)[C@H](Cc2c[nH]cn2)NC(=O)[C@@H](N)CSSC[C@@H](C(=O)O)NC(=O)[C@H](CO)NC1=O [Example 2, L-Cysteinyl-L-histidyl-L-tyrosyl-L-phenylalanyl-L-phenylalanyl-D-tryptophyl-L-lysyl-L-threonyl-L-phenylalanyl-L-threonyl-L-seryl-L-cysteine cyclic (1-12) disulfide diacetate salt] (H-CHYFF[dW]KTFTSC-OH; disulfide 1-12) | 254 ± 38 | 58 ± 24 | ≤ 10 | 68 ± 14 | ≤ 50 | – | – | – | – | – | –
2 | C[C@@H](O)[C@@H]1NC(=O)[C@H](Cc2ccccc2)NC(=O)[C@H]([C@@H](C)O)NC(=O)[C@H](CCCCN)NC(=O)[C@@H](Cc2c[nH]c3ccccc23)NC(=O)[C@H](Cc2ccccc2)NC(=O)[C@H](Cc2ccccc2)NC(=O)[C@H](Cc2ccc(O)cc2)NC(=O)[C@H](CCCNC(=N)N)NC(=O)[C@@H](N)CSSC[C@@H](C(=O)O)NC(=O)[C@H](CO)NC1=O [Example 3, L-Cysteinyl-L-arginyl-L-tyrosyl-L-phenylalanyl-L-phenylalanyl-D-tryptophyl-L-lysyl-L-threonyl-L-phenylalanyl-L-threonyl-L-seryl-L-cysteine cyclic (1-12) disulfide triacetate salt] (H-CRYFF[dW]KTFTSC-OH; disulfide 1-12) | 59 ± 16 | 13 ± 3 | ≤ 10 | 101 ± 24 | ≤ 50 | 278 ± 36 | 85 ±14 | 12 ± 4 | 12 ± 4 | 207 ± 29 | 80 ± 16
